Assay [1] concerns the target T1, PAR2 (Homo sapiens, UniProt P55085).
T1 construct: Human embryonic kidney cell line HEK293 cells cultured using DMEM culture medium; endogenous in cells; host or cells: HEK293
T1 sequence (P55085 26-397): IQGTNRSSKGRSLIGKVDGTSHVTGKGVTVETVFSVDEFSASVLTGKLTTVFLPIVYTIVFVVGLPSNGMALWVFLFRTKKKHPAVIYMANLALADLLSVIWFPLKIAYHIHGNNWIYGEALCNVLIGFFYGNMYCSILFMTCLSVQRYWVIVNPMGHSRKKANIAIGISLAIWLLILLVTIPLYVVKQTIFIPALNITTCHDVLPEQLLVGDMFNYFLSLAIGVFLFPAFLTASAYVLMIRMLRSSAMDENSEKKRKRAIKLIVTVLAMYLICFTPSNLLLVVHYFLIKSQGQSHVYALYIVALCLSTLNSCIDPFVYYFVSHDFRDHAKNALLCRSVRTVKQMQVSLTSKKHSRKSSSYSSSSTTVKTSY
Briefly: Intracellular calcium concentration measurement (trypsin-induced calcium elevation, FDSS6000). The assay is classed as cell-based. Conditions: HEK293 cells, trypsin 5 U/mL as agonist, test compound added 30 min before measurement; read-out: Inhibitory activity on intracellular calcium elevation (IC50 (nM)). From the text: In the present specification, examples of the measurement method for the PAR2 inhibitory activity include measurement method for a concentration elevation of intracellular calcium; measurement method for a production increase of intracellular inositol trisphosphate; measurement method for an increase in intracellular protein phosphorylation by protein kinase C and MAP kinase; and measurement method for a production amount or a release amount of inflammation-related physiologically active substances such as cytokine, chemokine, prostaglandin and nitric monoxide. Examples of the measurement method for an elevation of intracellular calcium concentration include a method wherein a calcium-binding fluorescent probe is allowed to be incorporated in advance into a cultured cell line or an animal-derived isolated cell having PAR2, or a cell in which PAR2 is artificially expressed, a protease having the PAR2 activity function such as trypsin or a PAR2 agonist (synthetic peptides such as SLIGKV-NH2 (SEQ ID NO: 1) and SLIGRL-NH2 (SEQ ID NO: 2) is added to activate PAR2 whereby fluctuating intracellular calcium concentrations are detected as changes in the fluorescent signal. Alternatively, it is also possible to measure an intracellular calcium concentration by determining the quantity of a fluorescence intensity produced in proportion to the calcium concentration using a calcium-binding luminescent protein overexpressing cell line such as Aequorin. Specifically, examples include the methods described in Test Examples of the present specification.
Human embryonic kidney cell line HEK293 cells cultured using DMEM culture medium (Invitrogen) with 3% fetal bovine serum (3% FBS)-added was prepared to have a concentration of 2×10^5 cells/mL, and plated in a type I collagen-coated 384-well black plate (clear bottom) (Greiner) so as to be 25 μL/well and cultured in a CO2 incubator overnight. FLIPR Calcium Assay Kit (Molecular Devices) prepared with Hanks-20 mM Hepes buffer (pH 7.4) was added to the cells so as to be 25 μL/well and cultured in the CO2 incubator for 1 hour. Trypsin (SIGMA-ALDRICH, catalog number: T8816, Enzyme Commission Number 3.4.21.4) prepared so as to be 5 U/mL as final concentration (BAEE unit) with Hanks-20 mM Hepes buffer (pH 7.4) was added to a 384-well deep well polypropylene plate (Greiner) to be an agonist reagent plate. Thirty minutes before the measurement using FDSS6000 (Hamamatsu Photonics K.K.), a test compound prepared with Hanks-20 mM Hepes buffer (pH 7.4) was added to the cell so as to be 8 μL/well. The cell plate to which the test compound was added and the reagent plate were set on FDSS6000, 22 μL/well of the agonist solution was added from the reagent plate, and the change in intracellular calcium concentration was measured with a CCD camera. The measurement was carried out at 37° C. for 120 seconds and the addition of reagent from the reagent plate to the cell plate was carried out using a built-in 384-well automatic dispenser of FDSS6000.
Note that Reference Example 1 in Table 3 is the compound represented by formula (XIX) synthesized in the above Reference Example 1 (hereinafter, also referred to as Compound (XIX)). Additionally, the “Comparative Compound” in Table 3 is the compound described in Patent Literature 4 represented by the following formula (XX) (I-343; hereinafter, also referred to as Compound (XX)).

Assay [2] addresses T2, PAR2 (Mus musculus, UniProt P55086).
T2 construct: orally administered to C57BL/6J male mice (Charles River), 6-10 weeks of age; tissue Charles River; host or cells: Living C57BL/6J male mice (in vivo; saliva secretion)
T2 sequence (P55086 26-399): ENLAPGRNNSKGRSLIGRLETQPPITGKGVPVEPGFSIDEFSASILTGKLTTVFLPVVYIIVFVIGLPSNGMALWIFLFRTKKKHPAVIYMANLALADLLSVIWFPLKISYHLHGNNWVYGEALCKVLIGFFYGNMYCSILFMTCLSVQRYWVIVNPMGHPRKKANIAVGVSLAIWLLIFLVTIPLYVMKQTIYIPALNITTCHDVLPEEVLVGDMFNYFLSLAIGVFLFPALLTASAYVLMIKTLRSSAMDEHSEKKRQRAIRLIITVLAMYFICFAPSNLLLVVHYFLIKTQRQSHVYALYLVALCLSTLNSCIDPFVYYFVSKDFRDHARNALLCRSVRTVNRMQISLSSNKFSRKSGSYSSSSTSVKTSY
Briefly: Measurement of PAR2 agonist (SLIGRL-NH2)-induced salivation in mouse. The assay is classed as in vivo. The conditions noted are these: C57BL/6J male mice, 0.3 mg/mL solution 10 mL/kg orally, 60 min before SLIGRL-NH2 i.p., saliva collected 10 min. The procedure: The test compound was added to a 0.5% carboxymethyl cellulose solution to which 2% DMSO was added, so as to have the final concentration of 0.3 mg/mL, thereby preparing an administration solution containing the test compound. The administration solution containing the test compound (10 mL/kg) was orally administered to C57BL/6J male mice (Charles River), 6-10 weeks of age, using an oral sonde and a syringe. Forty-five minutes after the administration of the test compound, 10 mL/kg of a 20% (w/v) urethane solution was intraperitoneal administered to the mice which were then anesthetized. Sixty minutes after the administration of the test compound, 10 mL/kg of a 0.1 mg/mL SLIGRL-NH2 (SEQ ID NO: 2) solution was intraperitoneally administered as the PAR2 agonist and a cotton ball was immediately placed in the oral cavity of the mouse to collect the saliva. Ten minutes after the administration of the PAR2 agonist, the cotton ball was removed and weighed to measure the amount of saliva secreted.
Note that Reference Example 1 in Table 4 is Compound (XIX). Additionally, Comparative Compound in Table 4 is Compound (XX).

The subject of assay [3] is DNFB-induced dermatitis in BALB/c male mice. Briefly: Mouse dermatitis model (DNFB-induced auricle swelling). The assay is classed as in vivo. Conditions: 0.3 mg/mL solution 10 mL/kg orally 8 hours after DNFB induction, auricle thickness on following day. The procedure:
The test compound was added to a 0.5% carboxymethyl cellulose solution so as to have the final concentration of 0.3 mg/mL, thereby preparing an administration solution containing the test compound. Hapten used was 2,4-dinitrofluorobenzene (DNFB, Wako Pure Chemical Industries).
Twenty-five (25) μL of a solution of DNFB diluted to 0.4% with a mixed solvent of acetone and an olive oil in a volume ratio of 2:1 was applied twice to the shaved abdominal region of BALB/c male mice (Charles River), 6-10 weeks of age, over a period of 2 days to create the sensitization. Four days after the sensitization, on the first day, 20 μL of a solution of DNFB diluted to 0.2% with a mixed solvent of acetone and an olive oil in a volume ratio of 2:1 was applied to the right auricle of the mouse to induce dermatitis. Eight hours after the induction of dermatitis, the administration solution containing the test compound (10 mL/kg) was orally administered to the mouse. On the day following the induction of dermatitis, the right auricle thickness of the mouse was measured using a thickness gauge to evaluate the action of the test compound.
Note that Reference Example 1 in Table 5 is Compound (XIX).

For `COc1cccc(F)c1N(C)c1cc(-c2cc(F)c(F)c(F)c2)nc2cc(C(=O)N(C)[C@H](C)CC(=O)O)nn12` [Example 7, (R)-3-(7-((2-fluoro-6-methoxyphenyl)(methyl)amino)-N-methyl-5-(3,4,5-trifluorophenyl)pyrazolo[1,5-a]pyrimidine-2-carboxamide)butanoic acid], the IC50 in assay [1] was 1.74 nM. In assay [2], the “Inhibitory activity on the PAR2-dependent saliva secretion (%)” value is on record as 96.0%. Also, in assay [3], the “Inhibitory activity on auricle swelling (%)” value was found to be 61.6%.
`CCCN(c1cc(-c2cc(F)c(Cl)c(F)c2)nc2cc(C(=O)N3C[C@@H]4[C@@H](CC(=O)O)[C@@H]4C3)nn12)C(C)C` [Example 15, 2-((1α,5α,6α)-3-(5-(4-chloro-3,5-difluorophenyl)-7-(isopropyl(propyl)amino)pyrazolo[1,5-a]pyrimidine-2-carbonyl)-3-azabicyclo[3.1.0]hexan-6-yl)acetic acid]: the concentration for half-maximal inhibition (IC50) in assay [1] came out at 12.8 nM. The “Inhibitory activity on auricle swelling (%)” value in assay [3] is recorded as 17.4%.

Values taken from patent publication US10227349B2, “Pyrazolo[1,5-a]pyrimidine compound” (Eisai R&D Management Co., Ltd., priority 2016, dated 2019).
